# Assay results taken from patent publication US20240109839A1, “NOVEL COMPOUND EXHIBITING ANTI-INFLAMMATORY ACTIVITY AS P38 MAP KINASE INHIBITOR” (PRAZERTHERAPEUTICS INC., priority 2021, published 2024).
# Columns and labels:
# p38 alpha = p38 alpha (Homo sapiens, UniProt Q16539); assay: Evaluation of inhibitory ability of p38a mitogen-activated protein kinase (MAPK); format: biochemical; details: Serine/Threonine 15 peptide, 1 hour at room temperature, read at 445 nm and 520 nm
# Protocol: To identify the ability to inhibit p38 MAPK, compounds 1 to 15 were diluted to identify the inhibitory effect according to concentration. Briefly, the compounds were diluted at concentrations of […], respectively, and then a peptide/kinase mixture (final 7.07-28.3 ng p38 alpha, 2 μM Serine/Threonine 15, 50 mM HEPES pH 7.0, 0.01% NaN3) and ATP solution were added. After carrying out a reaction at room temperature for 1 hour, a development reagent was added, and a reaction was performed again at room temperature for 1 hour.
# p-p38 MAPK = molecular target: T1, p-p38 MAPK (Mus musculus, UniProt P47811); assay: Evaluation of p38 MAPK protein inhibitory ability in cells (p-p38 immunoblot); format: cell-based; details: 10 μM compound, 24 hours; for inhibition at 10 µM: RAW264.7, Raw264.7 cells; for p-p38 inhibition %: Raw264.7 cells, 10 µM
# T1 construct: endogenous in cells; host or cells: Raw264.7
# T1 sequence (P47811 whole entry): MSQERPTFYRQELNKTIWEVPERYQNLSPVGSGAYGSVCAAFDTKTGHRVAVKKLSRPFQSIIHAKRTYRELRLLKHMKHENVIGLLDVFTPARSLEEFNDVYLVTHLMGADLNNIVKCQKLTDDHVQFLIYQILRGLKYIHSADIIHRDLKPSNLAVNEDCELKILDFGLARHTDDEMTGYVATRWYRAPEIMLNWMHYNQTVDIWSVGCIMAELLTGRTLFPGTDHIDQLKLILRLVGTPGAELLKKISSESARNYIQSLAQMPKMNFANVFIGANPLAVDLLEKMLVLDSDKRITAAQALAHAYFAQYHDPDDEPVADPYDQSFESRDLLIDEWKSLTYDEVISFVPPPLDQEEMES
# Protocol: To identify inhibition of p-p38 MAPK, inhibition of p38 MAPK was identified after each compound was treated to Raw264.7 cells obtained by transforming macrophages into cancerous cells that cause inflammation according to p-p38 MAPK activity. Briefly, Raw264.7 cells were cultured in Dulbecco's modified Eagle Medium supplemented with 10% fetal bovine serum and penicillin/streptomycin (100 U/ml). Raw 264.7 cells were treated with 10 μM of compounds 1 to 15 according to the present disclosure in a petri dish respectively, followed by culture in a CO2 incubator for 24 hours. The effect of each compound on inhibition of p-p38 MAPK in cells was identified through protein immunoblot.
# After completion of cell culture under the experimental conditions, washing was performed with cold phosphate buffered saline (PBS). The cells were then collected and centrifuged at 1200 rpm for 3 minutes. The precipitate was dissolved in cells with 2× sample buffer (1M Tris-HCl pH 6.8, 50% glycerol, 10% SDS, 2-mercaptoethanol, 1% bromophenol blue) and boiled at 100° C. for 10 minutes. The prepared protein samples were subjected to sodium dodecyl sulfate poly acrylamide gel electrophoresis and then transferred to PVDF membrane (Millipore). Blocking was performed in a 5% bovine serum albumin (BSA, RMbio) solution for a specific coupling reaction between the protein on the PVDF membrane and antibody. The BSA solution was then discarded, and the membrane was washed with PBS-T (0.5% tween 20 in PBS). The coupling reaction between the protein on the membrane and antibody was carried out overnight at 4° C., followed by washing again with PBS-T. Finally, a secondary antibody (Cell signaling Technology) conjugated with horseradish peroxidase (HRP) was diluted in PBS-T, and a reaction was carried out at room temperature for 2 hours. Luminata Forte HRP substrate (Millipore) was used to determine the protein amount on the membrane.
# Raw264.7 cells = assay: Evaluation of nitric oxide inhibitory ability according to cellular inflammatory response (Griess reagent); format: cell-based; details: 10 μM compound, 550 nm; for inhibition at 10 µM: Mus musculus, RAW264.7, 24 h, read-out: NO inhibition (%); for NO inhibition (%): 24 hours, 10 µM
# Protocol: In order to identify an inflammatory inhibitory effect upon inhibition of p-p38 MAPK, each compound was treated to Raw264.7 cells obtained by transforming macrophages into cancerous cells involved in the inflammatory response, so as to identify inhibition of inflammation due to inhibition of p38 MAPK. Briefly, Raw264.7 cells were cultured in Dulbecco's Modified Eagle Medium supplemented with 10% fetal bovine serum and penicillin/streptomycin (100 U/ml). Raw 264.7 cells were treated with 10 μM of compounds 1 to 15 according to the present disclosure in a petri dish respectively, followed by culture in a CO2 incubator for 24 hours.
# After completion of cell culture under experimental conditions, the supernatant was obtained and centrifuged at 1200 rpm for 3 minutes. The centrifuged supernatant was mixed with Griess reagent (1% sulfanilamide, 0.1% N-(1-naphthyl)ethylenediamine dihydrochloride, 5% phosphoric acid) at 1:1 and then a reaction was performed for 10 minutes under shaded condition. The concentration of nitric oxide was determined at a wavelength of 550 nm.
# Chain of p38 alpha (Q16539 whole entry): as the sequence (P47811 whole entry) above, with H48L, A263T counted along it
SMILES,IC50 (p38 alpha) [nM],inhibition at 10 µM (p-p38 MAPK) [%],inhibition at 10 µM (Raw264.7 cells) [%],p-p38 inhibition % (p-p38 MAPK) [%],NO inhibition (%) (Raw264.7 cells)
"Cc1ccc(C(=O)NC2CC2)cc1-c1ccc(C(=O)C2CCNC2)cc1 (stereo not drawn) [Compound 14, N-cyclopropyl-6-methyl-4′-(pyrrolidine-3-carbonyl)-[1,1′-biphenyl]-3-carboxamide]",126,88.6,–,–,–
"COCCN1CCC(C(=O)c2ccc(-c3cc(C(=O)NC4CC4)ccc3C)cc2)C1 (stereo not drawn) [Compound 15, N-cyclopropyl-4′-(1-(2-methoxyethyl)pyrrolidine-3-carbonyl)-6-methyl-[1,1′-biphenyl]-3-carboxamide]",158,79.2,–,–,–
"Cc1ccc(C(=O)NC2CC2)cc1-c1ccc(C(=O)C2CC2)cc1 [Compound 4, 4′-(cyclopropanecarbonyl)-N-cyclopropyl-6-methyl-[1,1′-biphenyl]-3-carboxamide]",39.2,20.9,26,–,–
"Cc1ccc(C(=O)NC2CC2)cc1-c1ccc(C(=O)C2CCC(O)C2)cc1 (stereo not drawn) [Compound 10, N-cyclopropyl-4′-(3-hydroxycyclopentanecarbonyl)-6-methyl-[1,1′-biphenyl]-3-carboxamide]",22.5,44.7,11.1,–,–
"Cc1ccc(C(=O)NC2CC2)cc1-c1ccc(C(=O)C2CCC(OCCO)C2)cc1 (stereo not drawn) [11 (syn isomer), N-cyclopropyl-4′-(3-(2-hydroxyethoxy)cyclopentanecarbonyl)-6-methyl-[1,1′-biphenyl]-3-carboxamide]",27.8,–,–,41.9,30.6
"COCCOC1CCC(C(=O)c2ccc(-c3cc(C(=O)NC4CC4)ccc3C)cc2)C1 (stereo not drawn) [Compound 12, N-cyclopropyl-4′-(3-(2-methoxyethoxy)cyclopentane-1-carbonyl)-6-methyl-[1,1′-biphenyl]-3-carboxamide]",21.8,–,–,–,–
"Cc1ccc(C(=O)NC2CC2)cc1-c1ccc(C(=O)C2CCC2)cc1 [Compound 5, 4′-(cyclobutanecarbonyl)-N-cyclopropyl-6-methyl-[1,1′-biphenyl]-3-carboxamide]",86.7,80.4,11.9,–,–
"Cc1ccc(C(=O)NC2CC2)cc1-c1ccc(C(=O)C2CC=CC2)cc1 [Compound 9, 4′-(cyclopent-3-enecarbonyl)-N-cyclopropyl-6-methyl-[1,1′-biphenyl]-3-carboxamide]",46.5,81.7,21.1,–,–
"Cc1ccc(C(=O)NC2CC2)cc1-c1ccc(C(=O)C(C)O)cc1 (stereo not drawn) [Compound 13, N-cyclopropyl-4′-(2-hydroxypropanoyl)-6-methyl-[1,1′-biphenyl]-3-carboxamide]",50.8,–,–,–,–
"Cc1ccc(C(=O)NC2CC2)cc1-c1ccc(C(=O)C2CCCCC2)cc1 [Compound 7, 4′-(cyclohexanecarbonyl)-N-cyclopropyl-6-methyl-[1,1′-biphenyl]-3-carboxamide]",72.6,87.6,15.5,–,–
"COCCC(C)C(=O)c1ccc(-c2cc(C(=O)NC3CC3)ccc2C)cc1 (stereo not drawn) [Compound 2, N-cyclopropyl-4′-(4-methoxy-2-methylbutanoyl)-6-methyl-[1,1′-biphenyl]-3-carboxamide]",21.9,–,–,–,–
"Cc1ccc(C(=O)NC2CC2)cc1-c1ccc(C(=O)C2CCC(OCCO)C2)cc1 (stereo not drawn) [11 (anti isomer), N-cyclopropyl-4′-(3-(2-hydroxyethoxy)cyclopentanecarbonyl)-6-methyl-[1,1′-biphenyl]-3-carboxamide]",58.4,–,–,64.1,11.0
"Cc1ccc(C(=O)NC2CC2)cc1-c1ccc(C(=O)C(C)(C)O)cc1 [Compound 1, N-cyclopropyl-4′-(2-hydroxy-2-methylpropanoyl)-6-methyl-[1,1′-biphenyl]-3-carboxamide]",71.8,–,–,–,–
"Cc1ccc(C(=O)NC2CC2)cc1-c1ccc(C(=O)C2CCCCCC2)cc1 [Compound 8, 4′-(cycloheptanecarbonyl)-N-cyclopropyl-6-methyl-[1,1′-biphenyl]-3-carboxamide]",46.6,83,43.6,–,–
"COCCCC(C)C(=O)c1ccc(-c2cc(C(=O)NC3CC3)ccc2C)cc1 (stereo not drawn) [Compound 3, N-cyclopropyl-4′-(5-methoxy-2-methylpentanoyl)-6-methyl-[1,1′-biphenyl]-3-carboxamide]",50.7,–,–,–,–
"Cc1ccc(C(=O)NC2CC2)cc1-c1ccc(C(=O)C2CCCC2)cc1 [Compound 6, 4′-(cyclopentanecarbonyl)-N-cyclopropyl-6-methyl-[1,1′-biphenyl]-3-carboxamide]",128,76.2,24,–,–
